Target: T1, PD-1-Ig binding to PD-L1-TVMV-His (PD-L1-His) (Homo sapiens, UniProt Q9NZQ7)
T1 construct: hPDL1(19-239)-TVMV-His; made in house; host or cells: HEK293T cells
Test: PD-1/PD-L1 Homogenous Time-Resolved Fluorescence (HTRF) binding assay
Conditions: PD-1-Ig (20 nM) / PD-L1-His (10 nM); numeric values
Outline: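 In dPBS with 0.1% BSA and 0.05% Tween-20, inhibitors were preincubated 15 min with 10 nM PD-L1-His before 20 nM PD-1-Ig was added for another 15 min. Binding read by time-resolved FRET between Eu-cryptate anti-Ig (1 nM) and APC anti-His (20 nM).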

T1 sequence (Q9NZQ7 with tags, fused parts or gaps): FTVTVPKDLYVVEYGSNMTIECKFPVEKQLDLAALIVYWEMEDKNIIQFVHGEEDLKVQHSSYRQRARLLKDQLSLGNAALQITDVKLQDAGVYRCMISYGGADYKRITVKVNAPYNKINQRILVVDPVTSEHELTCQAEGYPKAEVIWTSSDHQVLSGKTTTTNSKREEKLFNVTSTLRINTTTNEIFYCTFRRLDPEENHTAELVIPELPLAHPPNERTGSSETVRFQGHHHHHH

| IC50 [nM] | Compound |
| --- | --- |
| 5 | CCCC[C@H]1C(=O)N(C)[C@@H](CCCC)C(=O)N[C@@H](CC(C)C)C(=O)N[C@H](C(N)=O)CNCC(=O)N[C@@H](Cc2ccc(F)cc2)C(=O)N2CCCC[C@H]2C(=O)N[C@@H](CC(=O)O)C(=O)N2CCC[C@H]2C(=O)N[C@@H](CCC(N)=O)C(=O)N[C@@H](CCC(N)=O)C(=O)N2C[C@H](O)C[C@H]2C(=O)N[C@@H](Cc2c[nH]c3ccccc23)C(=O)N[C@@H](CC(N)=O)C(=O)N[C@@H](Cc2cn(CC(=O)O)c3ccccc23)C(=O)N1C [Example 9041] |

Same assay, conditions: PD-1-Ig (20 nM) / PD-L1-His (10 nM); range classes

| Compound | IC50 [nM] |
| --- | --- |
| CCCC[C@H]1C(=O)N(C)[C@@H](CCCC)C(=O)N[C@@H](CC(C)C)C(=O)N[C@H](C(N)=O)CNCC(=O)N[C@@H](Cc2ccc(F)cc2)C(=O)N2CCCC[C@H]2C(=O)N[C@@H](CC(N)=O)C(=O)N2CCC[C@H]2C(=O)N[C@@H](CCC(N)=O)C(=O)N[C@@H](CC(=O)O)C(=O)N2C[C@H](O)C[C@H]2C(=O)N[C@@H](Cc2c[nH]c3ccccc23)C(=O)N[C@@H](CC(N)=O)C(=O)N[C@@H](Cc2cn(CC(=O)O)c3ccccc23)C(=O)N1C [Example 9031] | 1 to 9.9 |
| CCCC[C@H]1C(=O)N(C)[C@@H](CCCC)C(=O)N[C@@H](CC(C)C)C(=O)N[C@H](C(N)=O)CNCC(=O)N[C@@H](Cc2ccc(F)cc2)C(=O)N2CCCC[C@H]2C(=O)N[C@@H](CC(N)=O)C(=O)N2CCC[C@H]2C(=O)N[C@@H](CCC(N)=O)C(=O)N[C@@H](CCC(=O)O)C(=O)N2C[C@H](O)C[C@H]2C(=O)N[C@@H](Cc2c[nH]c3ccccc23)C(=O)N[C@@H](CC(N)=O)C(=O)N[C@@H](Cc2cn(CC(=O)O)c3ccccc23)C(=O)N1C [Example 9032] | 1 to 9.9 |
| CCCC[C@H]1C(=O)N(C)[C@@H](CCCC)C(=O)N[C@@H](CC(C)C)C(=O)N[C@H](C(N)=O)CNCC(=O)N[C@@H](Cc2ccc(F)cc2)C(=O)N2CCCC[C@H]2C(=O)N[C@@H](CC(N)=O)C(=O)N2CCC[C@H]2C(=O)N[C@@H](CCC(N)=O)C(=O)N[C@@H](CCC(N)=O)C(=O)N2C[C@H](O)C[C@H]2C(=O)N[C@@H](Cc2c[nH]c3ccccc23)C(=O)N[C@@H](CC(N)=O)C(=O)N[C@@H](Cc2cn(CC(=O)O)c3ccccc23)C(=O)N1C [Example 9033] | 1 to 9.9 |
| CCCC[C@H]1C(=O)N(C)[C@@H](CCCC)C(=O)N[C@@H](CC(C)C)C(=O)N[C@H](C(N)=O)CNCC(=O)N[C@@H](Cc2ccc(O)cc2)C(=O)N2CCCC[C@H]2C(=O)N[C@@H](CC(=O)O)C(=O)N2CCC[C@H]2C(=O)N[C@@H](CCC(N)=O)C(=O)N[C@@H](CC(C)C)C(=O)N2C[C@H](O)C[C@H]2C(=O)N[C@@H](Cc2c[nH]c3ccccc23)C(=O)N[C@@H](CC(N)=O)C(=O)N[C@@H](Cc2cn(CC(=O)O)c3ccccc23)C(=O)N1C [Example 9034] | 1 to 9.9 |
| CCCC[C@H]1C(=O)N(C)[C@@H](CCCC)C(=O)N[C@@H](CC(C)C)C(=O)N[C@H](C(N)=O)CNCC(=O)N[C@@H](Cc2ccc(O)cc2)C(=O)N2CCCC[C@H]2C(=O)N[C@@H](CC(=O)O)C(=O)N2CCC[C@H]2C(=O)N[C@@H](CCC(N)=O)C(=O)N[C@@H](CC(=O)O)C(=O)N2C[C@H](O)C[C@H]2C(=O)N[C@@H](Cc2c[nH]c3ccccc23)C(=O)N[C@@H](CC(N)=O)C(=O)N[C@@H](Cc2cn(CC(=O)O)c3ccccc23)C(=O)N1C [Example 9035] | 1 to 9.9 |
| CCCC[C@H]1C(=O)N(C)[C@@H](CCCC)C(=O)N[C@@H](CC(C)C)C(=O)N[C@H](C(N)=O)CNCC(=O)N[C@@H](Cc2ccc(O)cc2)C(=O)N2CCCC[C@H]2C(=O)N[C@@H](CC(=O)O)C(=O)N2CCC[C@H]2C(=O)N[C@@H](CCC(N)=O)C(=O)N[C@@H](CCC(N)=O)C(=O)N2C[C@H](O)C[C@H]2C(=O)N[C@@H](Cc2c[nH]c3ccccc23)C(=O)N[C@@H](CC(N)=O)C(=O)N[C@@H](Cc2cn(CC(=O)O)c3ccccc23)C(=O)N1C [Example 9037] | 1 to 9.9 |
| CCCC[C@H]1C(=O)N(C)[C@@H](CCCC)C(=O)N[C@@H](CC(C)C)C(=O)N[C@H](C(N)=O)CNCC(=O)N[C@@H](Cc2ccc(F)cc2)C(=O)N2CCCC[C@H]2C(=O)N[C@@H](CC(=O)O)C(=O)N2CCC[C@H]2C(=O)N[C@@H](CCC(N)=O)C(=O)N[C@@H](CC(C)C)C(=O)N2C[C@H](O)C[C@H]2C(=O)N[C@@H](Cc2c[nH]c3ccccc23)C(=O)N[C@@H](CC(N)=O)C(=O)N[C@@H](Cc2cn(CC(=O)O)c3ccccc23)C(=O)N1C [Example 9038] | 1 to 9.9 |
| CCCC[C@H]1C(=O)N(C)[C@@H](CCCC)C(=O)N[C@@H](CC(C)C)C(=O)N[C@H](C(N)=O)CNCC(=O)N[C@@H](Cc2ccc(F)cc2)C(=O)N2CCCC[C@H]2C(=O)N[C@@H](CC(=O)O)C(=O)N2CCC[C@H]2C(=O)N[C@@H](CCC(N)=O)C(=O)N[C@@H](CC(=O)O)C(=O)N2C[C@H](O)C[C@H]2C(=O)N[C@@H](Cc2c[nH]c3ccccc23)C(=O)N[C@@H](CC(N)=O)C(=O)N[C@@H](Cc2cn(CC(=O)O)c3ccccc23)C(=O)N1C [Example 9039] | 1 to 9.9 |
| CCCC[C@H]1C(=O)N(C)[C@@H](CCCC)C(=O)N[C@@H](CC(C)C)C(=O)N[C@H](C(N)=O)CNCC(=O)N[C@@H](Cc2ccc(F)cc2)C(=O)N2CCCC[C@H]2C(=O)N[C@@H](CC(=O)O)C(=O)N2CCC[C@H]2C(=O)N[C@@H](CCC(N)=O)C(=O)N[C@@H](CCC(=O)O)C(=O)N2C[C@H](O)C[C@H]2C(=O)N[C@@H](Cc2c[nH]c3ccccc23)C(=O)N[C@@H](CC(N)=O)C(=O)N[C@@H](Cc2cn(CC(=O)O)c3ccccc23)C(=O)N1C [Example 9040] | 1 to 9.9 |

The next lines start with the values.

| IC50 [nM] | Compound |
| --- | --- |
| 1 to 9.9 | CCCC[C@H]1C(=O)N(C)[C@@H](CCCC)C(=O)N[C@@H](CCC(=O)O)C(=O)N[C@H](C(N)=O)CNCC(=O)N[C@@H](Cc2ccc(O)cc2)C(=O)N2CCCC[C@H]2C(=O)N[C@@H](CC(N)=O)C(=O)N2CCC[C@H]2C(=O)N[C@@H](CCC(N)=O)C(=O)N[C@@H](CC(C)C)C(=O)N2C[C@H](O)C[C@H]2C(=O)N[C@@H](Cc2c[nH]c3ccccc23)C(=O)N[C@@H](CC(N)=O)C(=O)N[C@@H](Cc2cn(CC(=O)O)c3ccccc23)C(=O)N1C [Example 9042] |
| 1 to 9.9 | CCCC[C@H]1C(=O)N(C)[C@@H](CCCC)C(=O)N[C@@H](CCC(=O)O)C(=O)N[C@H](C(N)=O)CNCC(=O)N[C@@H](Cc2ccc(O)cc2)C(=O)N2CCCC[C@H]2C(=O)N[C@@H](CC(N)=O)C(=O)N2CCC[C@H]2C(=O)N[C@@H](CCC(N)=O)C(=O)N[C@@H](CC(=O)O)C(=O)N2C[C@H](O)C[C@H]2C(=O)N[C@@H](Cc2c[nH]c3ccccc23)C(=O)N[C@@H](CC(N)=O)C(=O)N[C@@H](Cc2cn(CC(=O)O)c3ccccc23)C(=O)N1C [Example 9043] |
| 1 to 9.9 | CCCC[C@H]1C(=O)N(C)[C@@H](CCCC)C(=O)N[C@@H](CCC(=O)O)C(=O)N[C@H](C(N)=O)CNCC(=O)N[C@@H](Cc2ccc(O)cc2)C(=O)N2CCCC[C@H]2C(=O)N[C@@H](CC(N)=O)C(=O)N2CCC[C@H]2C(=O)N[C@@H](CCC(N)=O)C(=O)N[C@@H](CCC(=O)O)C(=O)N2C[C@H](O)C[C@H]2C(=O)N[C@@H](Cc2c[nH]c3ccccc23)C(=O)N[C@@H](CC(N)=O)C(=O)N[C@@H](Cc2cn(CC(=O)O)c3ccccc23)C(=O)N1C [Example 9044] |
| 1 to 9.9 | CCCC[C@H]1C(=O)N(C)[C@@H](CCCC)C(=O)N[C@@H](CCC(=O)O)C(=O)N[C@H](C(N)=O)CNCC(=O)N[C@@H](Cc2ccc(O)cc2)C(=O)N2CCCC[C@H]2C(=O)N[C@@H](CC(N)=O)C(=O)N2CCC[C@H]2C(=O)N[C@@H](CCC(N)=O)C(=O)N[C@@H](CCC(N)=O)C(=O)N2C[C@H](O)C[C@H]2C(=O)N[C@@H](Cc2c[nH]c3ccccc23)C(=O)N[C@@H](CC(N)=O)C(=O)N[C@@H](Cc2cn(CC(=O)O)c3ccccc23)C(=O)N1C [Example 9045] |
| 1 to 9.9 | CCCC[C@H]1C(=O)N(C)[C@@H](CCCC)C(=O)N[C@@H](CCC(=O)O)C(=O)N[C@H](C(N)=O)CNCC(=O)N[C@@H](Cc2ccc(F)cc2)C(=O)N2CCCC[C@H]2C(=O)N[C@@H](CC(N)=O)C(=O)N2CCC[C@H]2C(=O)N[C@@H](CCC(N)=O)C(=O)N[C@@H](CC(C)C)C(=O)N2C[C@H](O)C[C@H]2C(=O)N[C@@H](Cc2c[nH]c3ccccc23)C(=O)N[C@@H](CC(N)=O)C(=O)N[C@@H](Cc2cn(CC(=O)O)c3ccccc23)C(=O)N1C [Example 9046] |
| 1 to 9.9 | CCCC[C@H]1C(=O)N(C)[C@@H](CCCC)C(=O)N[C@@H](CCC(=O)O)C(=O)N[C@H](C(N)=O)CNCC(=O)N[C@@H](Cc2ccc(F)cc2)C(=O)N2CCCC[C@H]2C(=O)N[C@@H](CC(N)=O)C(=O)N2CCC[C@H]2C(=O)N[C@@H](CCC(N)=O)C(=O)N[C@@H](CCC(=O)O)C(=O)N2C[C@H](O)C[C@H]2C(=O)N[C@@H](Cc2c[nH]c3ccccc23)C(=O)N[C@@H](CC(N)=O)C(=O)N[C@@H](Cc2cn(CC(=O)O)c3ccccc23)C(=O)N1C [Example 9047] |
| 1 to 9.9 | CCCC[C@H]1C(=O)N(C)[C@@H](CCCC)C(=O)N[C@@H](CCC(=O)O)C(=O)N[C@H](C(N)=O)CNCC(=O)N[C@@H](Cc2ccc(F)cc2)C(=O)N2CCCC[C@H]2C(=O)N[C@@H](CC(N)=O)C(=O)N2CCC[C@H]2C(=O)N[C@@H](CCC(N)=O)C(=O)N[C@@H](CCC(N)=O)C(=O)N2C[C@H](O)C[C@H]2C(=O)N[C@@H](Cc2c[nH]c3ccccc23)C(=O)N[C@@H](CC(N)=O)C(=O)N[C@@H](Cc2cn(CC(=O)O)c3ccccc23)C(=O)N1C [Example 9048] |
| 1 to 9.9 | CCCC[C@H]1C(=O)N(C)[C@@H](CCCC)C(=O)N[C@@H](CC(C)C)C(=O)N[C@H](C(N)=O)CNCC(=O)N[C@@H](Cc2ccc(O)cc2)C(=O)N2CCCC[C@H]2C(=O)N[C@@H](CC(N)=O)C(=O)N2CCC[C@H]2C(=O)N[C@@H](Cc2c[nH]cn2)C(=O)N[C@@H](CC(=O)O)C(=O)N2C[C@H](O)C[C@H]2C(=O)N[C@@H](Cc2c[nH]c3ccccc23)C(=O)N[C@@H](C)C(=O)N[C@@H](Cc2cn(CC(=O)O)c3ccccc23)C(=O)N1C [Example 9049] |
